Laboratory results taken from patent publication US9351955B2, “Compounds and pharmaceutical compositions thereof for the treatment of cystic fibrosis” (Galapagos NV, priority 2013, dated 2016).

Columns and labels:
Assay type in all cases: cell-based
CFTR ΔF508 mutant [1] = target: T1, CFTR ΔF508 mutant (Homo sapiens, UniProt P13569, DEL508-508); assay: YFP-halide influx assay for the CFTR-ΔF508 mutation (384 well, CFBE41o- cells, FDSS/μCell); conditions: forskolin 10.67 μM, fluorescence after 36 seconds, read-out: EC50 measured by YFP-halide influx assay for the CFTR-ΔF508
T1 construct: expressed in transfected cells; host or cells: CFBE41o- (adenoviral transduction)
Summary of the method: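 CFBE41o- cells were adenovirally transduced with ΔF508 CFTR and the YFP H148Q/I152L reporter. Cells were then held 24 h at 27 °C or treated 24 h at 37 °C with a CFTR modulator. Iodide-induced quench was recorded for 2 min, and EC50 was derived from 1−F/F0 at 36 s against compound concentration.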

CFTR-G1349D = target: T2, CFTR-G1349D (Homo sapiens, UniProt P13569, G1349D); assay: YFP-halide influx assay for the CFTR-G1349D; conditions: CFTR-G1349D mutant; read-out: EC50 measured by YFP-halide influx assay for the CFTR-G1349D
T2 construct: expressed in transfected cells
Text: (§1) The YFP halide influx assay measures the functionality of the cystic fibrosis Transmembrane Conductance regulator (CFTR) channels. The assay is used to evaluate the capacity of compounds to increase the channel opening of existing mutant CFTR channels in the membrane. It makes use of the observation that the yellow fluorescent protein (YFP) variant YFP H148Q, I152L, F47L has its fluorescence substantially quenched by halide ions like Cl^− and I^−. (Galietta et al., 2001)
(§2) For this purpose, HEK293-cells are seeded in 96 well plates. During seeding, the cells are reverse-transfected with plasmid vectors that direct the expression of the CFTR G551D mutant and of the YFP reporter. Cells are incubated at 37° C., 5% CO2 for 24 hours so as to allow for sufficient expression of the CFTR protein.
(§3) The I^−-induced quenching of fluorescence is recorded immediately after injection of I^− for 7 seconds. The capacity of a compound to increase the channel opening is directly correlated with the decrease in fluorescence, and is expressed as (1−(fluorescence after 7 seconds (F)/fluorescence before injection (F0))) and an EC50 can be derived from a (1−F/F0) vs compound concentration plot.
(§4) Similar YHA assays were developed for other channel gating defective or channel conductance defective CFTR mutants to determine effect of compound on channel activity. Examples of mutants are G178R, G1349D, S549N, R117H, R334W. This assay is also used for additional class I CFTR mutants, including G542X, W1282X; class II mutants including N1303K, and for class III mutants including S1251N; or wild-type CFTR.

CFTR-R117H = target: T3, CFTR-R117H (Homo sapiens, UniProt P13569, R117H); assay: YFP-halide influx assay for the CFTR-R117H; conditions: CFTR-R117H mutant; read-out: EC50 measured by YFP-halide influx assay for the CFTR-R117H
T3 construct: expressed in transfected cells
Text: as §1, §2, §3, §4

CFTR ΔF508 mutant [2] = target: T1, CFTR ΔF508 mutant; assay: YFP-halide influx assay for the CFTR-ΔF508 mutation (96 well, CFBE41o- cells); conditions: compounds of the invention, 96 well, forskolin 10.67 μM, read-out: EC50 measured by YFP-halide influx assay for the CFTR-ΔF508
Summary of the method: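 CFBE41o- cells were adenovirally transduced with CFTR ΔF508 and the halide-sensitive YFP H148Q/I152L. They were then corrected either at 27 °C for 24 h or with a CFTR modulator for 24 h at 37 °C. After iodide injection, YFP quenching over 7 s was expressed as 1−F/F0, and EC50 was derived from the concentration–response plot.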

CFTR-G178R = target: T4, CFTR-G178R (Homo sapiens, UniProt P13569, G178R); assay: YFP-halide influx assay for the CFTR-G178R; conditions: read-out: EC50 measured by YFP-halide influx assay for the CFTR-G178R
T4 construct: expressed in transfected cells
Text: as §1, §2, §3, §4

CFTR-S549N = target: T5, CFTR-S549N (Homo sapiens, UniProt P13569, S549N); assay: YFP-halide influx assay for the CFTR-S549N; conditions: CFTR-S549N mutant; read-out: EC50 measured by YFP-halide influx assay for the CFTR-S549N
T5 construct: expressed in transfected cells
Text: as §1, §2, §3, §4

CFTR G551D mutant = target: T6, CFTR G551D mutant (Homo sapiens, UniProt P13569, G551D); assay: YFP-halide influx assay for the CFTR-G551D mutation (HEK293 cells); conditions: HEK293 cells expressing CFTR G551D and YFP reporter; forskolin 10.67 μM; read-out: EC50 measured by YFP-halide influx assay for the CFTR-G551D
T6 construct: expressed in transfected cells; host or cells: HEK293 (reverse transfection with plasmids)
Summary of the method: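 HEK293 cells reverse-transfected with CFTR G551D and halide-sensitive YFP, expressed 24 h at 37 °C. Iodide-induced fluorescence quench recorded for 7 s after I^− injection; response as 1−F/F0, EC50 from concentration plot.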

T2 sequence (P13569 whole entry G1349D): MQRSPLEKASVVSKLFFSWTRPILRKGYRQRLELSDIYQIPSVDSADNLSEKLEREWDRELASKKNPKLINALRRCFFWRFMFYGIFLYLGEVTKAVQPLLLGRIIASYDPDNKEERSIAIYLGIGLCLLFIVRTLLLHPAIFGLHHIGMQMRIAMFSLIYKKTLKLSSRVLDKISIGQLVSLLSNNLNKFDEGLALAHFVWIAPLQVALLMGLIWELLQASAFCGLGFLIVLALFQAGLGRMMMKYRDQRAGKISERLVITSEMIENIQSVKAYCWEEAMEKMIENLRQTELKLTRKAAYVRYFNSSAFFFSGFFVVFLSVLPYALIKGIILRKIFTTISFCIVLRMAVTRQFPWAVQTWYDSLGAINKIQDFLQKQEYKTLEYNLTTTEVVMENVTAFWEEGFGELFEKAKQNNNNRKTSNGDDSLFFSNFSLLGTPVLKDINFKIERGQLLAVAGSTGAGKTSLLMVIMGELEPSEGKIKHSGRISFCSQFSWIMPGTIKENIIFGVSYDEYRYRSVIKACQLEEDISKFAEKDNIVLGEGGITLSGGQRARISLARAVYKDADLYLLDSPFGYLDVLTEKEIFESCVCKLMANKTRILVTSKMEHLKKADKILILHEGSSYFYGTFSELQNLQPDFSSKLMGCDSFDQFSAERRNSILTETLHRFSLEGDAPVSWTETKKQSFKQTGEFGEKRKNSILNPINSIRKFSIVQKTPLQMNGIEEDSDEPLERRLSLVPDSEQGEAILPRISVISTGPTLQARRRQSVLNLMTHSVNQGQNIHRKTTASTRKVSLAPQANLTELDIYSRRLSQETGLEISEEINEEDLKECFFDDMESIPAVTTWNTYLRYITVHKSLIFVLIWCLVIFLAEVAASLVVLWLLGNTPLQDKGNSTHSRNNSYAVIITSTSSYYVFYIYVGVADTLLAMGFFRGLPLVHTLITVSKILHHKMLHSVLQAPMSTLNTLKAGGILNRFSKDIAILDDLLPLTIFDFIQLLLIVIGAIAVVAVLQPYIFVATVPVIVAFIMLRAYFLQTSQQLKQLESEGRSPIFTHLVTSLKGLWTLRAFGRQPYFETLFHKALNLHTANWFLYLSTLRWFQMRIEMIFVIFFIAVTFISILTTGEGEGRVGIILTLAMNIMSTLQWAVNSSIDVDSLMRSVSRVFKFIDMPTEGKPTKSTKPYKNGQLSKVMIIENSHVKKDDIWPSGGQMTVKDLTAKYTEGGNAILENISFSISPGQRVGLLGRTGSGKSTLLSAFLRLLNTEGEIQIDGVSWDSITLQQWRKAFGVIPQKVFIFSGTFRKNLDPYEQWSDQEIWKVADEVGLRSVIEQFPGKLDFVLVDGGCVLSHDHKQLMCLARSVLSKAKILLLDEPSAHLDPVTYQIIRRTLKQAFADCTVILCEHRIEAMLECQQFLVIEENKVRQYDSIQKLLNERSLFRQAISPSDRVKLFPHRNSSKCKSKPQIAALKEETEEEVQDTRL
T6 sequence (P13569 whole entry G551D): as the sequence (P13569 whole entry G1349D) above, with G551D, D1349G counted along it
T5 sequence (P13569 whole entry S549N): as the sequence (P13569 whole entry G1349D) above, with S549N, D1349G counted along it
T4 sequence (P13569 whole entry G178R): as the sequence (P13569 whole entry G1349D) above, with G178R, D1349G counted along it
T3 sequence (P13569 whole entry R117H): as the sequence (P13569 whole entry G1349D) above, with R117H, D1349G counted along it
T1 sequence (P13569 with tags, fused parts or gaps DEL508-508): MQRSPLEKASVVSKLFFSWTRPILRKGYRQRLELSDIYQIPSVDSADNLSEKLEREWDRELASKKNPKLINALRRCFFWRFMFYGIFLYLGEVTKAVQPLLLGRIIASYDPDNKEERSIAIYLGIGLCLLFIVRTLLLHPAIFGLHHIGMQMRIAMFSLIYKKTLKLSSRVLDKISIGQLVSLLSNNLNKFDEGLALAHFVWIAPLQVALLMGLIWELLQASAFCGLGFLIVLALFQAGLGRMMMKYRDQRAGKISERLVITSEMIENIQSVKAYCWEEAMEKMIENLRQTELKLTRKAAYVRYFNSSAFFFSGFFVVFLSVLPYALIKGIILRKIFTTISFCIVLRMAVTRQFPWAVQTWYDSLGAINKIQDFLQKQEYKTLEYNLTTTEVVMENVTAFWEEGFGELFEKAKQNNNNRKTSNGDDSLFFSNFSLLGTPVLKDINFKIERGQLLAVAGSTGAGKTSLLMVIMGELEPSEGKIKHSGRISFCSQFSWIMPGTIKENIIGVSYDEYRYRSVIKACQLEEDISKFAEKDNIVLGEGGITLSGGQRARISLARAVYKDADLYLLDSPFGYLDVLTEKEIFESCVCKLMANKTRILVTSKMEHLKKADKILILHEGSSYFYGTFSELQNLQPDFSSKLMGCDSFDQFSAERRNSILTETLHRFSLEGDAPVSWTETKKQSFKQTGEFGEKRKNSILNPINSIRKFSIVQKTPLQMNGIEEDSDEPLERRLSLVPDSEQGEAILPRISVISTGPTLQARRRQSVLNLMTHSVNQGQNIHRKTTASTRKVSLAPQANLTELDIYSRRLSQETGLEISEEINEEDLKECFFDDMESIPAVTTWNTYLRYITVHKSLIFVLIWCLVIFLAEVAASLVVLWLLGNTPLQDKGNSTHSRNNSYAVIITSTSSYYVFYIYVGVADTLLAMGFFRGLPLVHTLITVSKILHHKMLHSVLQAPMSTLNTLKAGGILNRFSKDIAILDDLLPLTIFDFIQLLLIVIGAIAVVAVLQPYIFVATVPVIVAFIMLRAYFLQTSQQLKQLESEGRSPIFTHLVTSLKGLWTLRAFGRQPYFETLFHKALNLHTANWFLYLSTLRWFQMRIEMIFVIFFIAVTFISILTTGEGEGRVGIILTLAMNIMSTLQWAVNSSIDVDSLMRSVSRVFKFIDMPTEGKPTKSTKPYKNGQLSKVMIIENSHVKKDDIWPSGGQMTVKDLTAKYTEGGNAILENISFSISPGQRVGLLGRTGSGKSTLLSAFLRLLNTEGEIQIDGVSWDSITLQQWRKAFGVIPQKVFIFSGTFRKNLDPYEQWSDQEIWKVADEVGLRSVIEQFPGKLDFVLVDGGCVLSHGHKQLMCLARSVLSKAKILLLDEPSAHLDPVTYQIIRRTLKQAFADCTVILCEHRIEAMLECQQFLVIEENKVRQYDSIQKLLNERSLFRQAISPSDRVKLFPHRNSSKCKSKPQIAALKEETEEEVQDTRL

SMILES | EC50 (CFTR ΔF508 mutant [1]) [nM] | EC50 (CFTR-G1349D) [nM] | EC50 (CFTR-R117H) [nM] | EC50 (CFTR ΔF508 mutant [2]) [nM] | EC50 (CFTR-G178R) [nM] | EC50 (CFTR-S549N) [nM] | EC50 (CFTR G551D mutant) [nM]
CC1(C)Cc2c(sc(NC(=O)C(O)C(C)(C)C)c2C(N)=O)C(C)(C)O1 (stereo not drawn) [Compound 38, 2-(2-hydroxy-3,3-dimethylbutanamido)-5,5,7,7-tetramethyl-5,7-dihydro-4H-thieno[2,3-c]pyran-3-carboxamide] | 5.99 | 517 | 64.3 | 5 | 96.8 | 690 | –
CC(C)C(O)C(=O)Nc1sc2c(c1C(N)=O)CC(C)(C)OC2(C)C (stereo not drawn) [Compound 39, 2-(2-hydroxy-3-methylbutanamido)-5,5,7,7-tetramethyl-5,7-dihydro-4H-thieno[2,3-c]pyran-3-carboxamide] | 4.51 | 1340 | 145 | 6 | 1360 | 1100 | –
CC1(C)Cc2c(sc(NC(=O)C3(CO)CCC3)c2C(N)=O)C(C)(C)O1 [Compound 40, 2-(1-(hydroxymethyl)cyclobutanecarboxamido)-5,5,7,7-tetramethyl-5,7-dihydro-4H-thieno[2,3-c]pyran-3-carboxamide] | 35.6 | 1910 | 2900 | 32 | > 3330 | 1930 | –
CC1(C)Cc2c(sc(NC(=O)c3n[nH]cc3C3=CCOCC3)c2C(N)=O)C(C)(C)O1 [Compound 45, N-(3-carbamoyl-5,5,7,7-tetramethyl-4H-thieno[2,3-c]pyran-2-yl)-4-(3,6-dihydro-2H-pyran-4-yl)-1H-pyrazole-3-carboxamide] | 29.6 | 325 | 1200 | – | 368 | 1520 | 1140
CC(C)CC(O)C(=O)Nc1sc2c(c1C(N)=O)CC(C)(C)OC2(C)C (stereo not drawn) [Compound 46, 2-[(2-hydroxy-4-methyl-pentanoyl)amino]-5,5,7,7-tetramethyl-4H-thieno[2,3-c]pyran-3-carboxamide] | 2.84 | 58.4 | 24.4 | – | 19 | 140 | 1430
COCc1[nH]nc(C(=O)Nc2sc3c(c2C(N)=O)CC(C)(C)OC3(C)C)c1Cl [Compound 50, N-(3-carbamoyl-5,5,7,7-tetramethyl-4H-thieno[2,3-c]pyran-2-yl)-4-chloro-5-(methoxymethyl)-1H-pyrazole-3-carboxamide] | 10.6 | 70.5 | 76.3 | – | 47.4 | 105 | 288
COCCOc1cc(C(=O)Nc2sc3c(c2C(N)=O)CC(C)(C)OC3(C)C)n[nH]1 [Compound 55, 5-(2-Methoxy-ethoxy)-1H-pyrazole-3-carboxylic acid (3-carbamoyl-5,5,7,7-tetramethyl-4,7-dihydro-5H-thieno[2,3-c]pyran-2-yl)-amide] | 24.5 | 74 | 38.9 | – | 58.3 | 108 | 600
CCCc1c[nH]nc1C(=O)Nc1sc2c(c1C(N)=O)CC(C)(C)OC2(C)C [Compound 71, N-(3-carbamoyl-5,5,7,7-tetramethyl-4H-thieno[2,3-c]pyran-2-yl)-4-propyl-1H-pyrazole-3-carboxamide] | 14.4 | 97.7 | 116 | – | 89.3 | 196 | 1170
CCOCCc1c[nH]nc1C(=O)Nc1sc2c(c1C(N)=O)CC(C)(C)OC2(C)C [Compound 72, N-(3-carbamoyl-5,5,7,7-tetramethyl-4H-thieno[2,3-c]pyran-2-yl)-4-(2-ethoxyethyl)-1H-pyrazole-3-carboxamide] | 17.9 | 64 | 147 | – | 31.4 | 122 | 368
CC1(C)Cc2c(sc(NC(=O)[C@@H](O)C(C)(C)C)c2C(N)=O)C(C)(C)O1 [Compound 76, 2-[[(2S)-2-hydroxy-3,3-dimethyl-butanoyl]amino]-5,5,7,7-tetramethyl-4H-thieno[2,3-c]pyran-3-carboxamide] | 2.17 | 24.4 | 15.3 | – | 14.1 | 31.5 | 412
CC1(C)Cc2c(sc(NC(=O)[C@H](O)C(C)(C)C)c2C(N)=O)C(C)(C)O1 [Compound 77, 2-[[(2R)-2-hydroxy-3,3-dimethyl-butanoyl]amino]-5,5,7,7-tetramethyl-4H-thieno[2,3-c]pyran-3-carboxamide] | 127 | 1310 | 1010 | – | 2210 | 1450 | 7780
CC1(C)Cc2c(sc(NC(=O)c3n[nH]cc3C3=COCCO3)c2C(N)=O)C(C)(C)O1 [Compound 94, N-(3-carbamoyl-5,5,7,7-tetramethyl-4H-thieno[2,3-c]pyran-2-yl)-4-(2,3-dihydro-1,4-dioxin-5-yl)-1H-pyrazole-3-carboxamide] | 30.1 | 672 | 147 | – | 67.6 | 345 | 541
CC1(C)Cc2c(sc(NC(=O)[C@@H](O)CC3CC3)c2C(N)=O)C(C)(C)O1 [Compound 98, 2-[[(2S)-3-cyclopropyl-2-hydroxy-propanoyl]amino]-5,5,7,7-tetramethyl-4H-thieno[2,3-c]pyran-3-carboxamide] | 2.62 | 54.7 | 26.7 | – | 41.5 | 73 | 5110
CC(C)OCCOc1c[nH]nc1C(=O)Nc1sc2c(c1C(N)=O)CC(C)(C)OC2(C)C [Compound 101, N-(3-carbamoyl-5,5,7,7-tetramethyl-4H-thieno[2,3-c]pyran-2-yl)-4-(2-isopropoxyethoxy)-1H-pyrazole-3-carboxamide] | 26.8 | 888 | 1120 | – | 347 | 947 | 1360
CC(C)(C)CC(O)C(=O)Nc1sc2c(c1C(N)=O)CC(C)(C)OC2(C)C (stereo not drawn) [Compound 106, 2-[(2-hydroxy-4,4-dimethyl-pentanoyl)amino]-5,5,7,7-tetramethyl-4H-thieno[2,3-c]pyran-3-carboxamide] | 0.54 | 200 | 11.7 | – | 26 | 21.8 | 981
CC1(C)Cc2c(sc(NC(=O)c3ccn(CC(F)(F)F)n3)c2C(N)=O)C(C)(C)O1 [Compound 121, N-(3-carbamoyl-5,5,7,7-tetramethyl-4H-thieno[2,3-c]pyran-2-yl)-1-(2,2,2-trifluoroethyl)pyrazole-3-carboxamide] | 18.7 | 536 | 724 | – | 466 | 599 | 1000
CC1(C)Cc2c(sc(NC(=O)c3ccnn3CC(F)(F)F)c2C(N)=O)C(C)(C)O1 [Compound 151, N-(3-carbamoyl-5,5,7,7-tetramethyl-4H-thieno[2,3-c]pyran-2-yl)-2-(2,2,2-trifluoroethyl)pyrazole-3-carboxamide] | 20.1 | 464 | 780 | – | 221 | 3330 | 971
